Measured values from patent US7618802B2 (priority 2003, dated 2009).

Legend:
icSARS-CoV = format: cell-based, SARS-CoV; settings: single dose of 500 μg/ml at 1 hr pi
wild type SARS-CoV = format: cell-based; settings: single dose of 500 μg/ml at 1 hr pi

In the case of CCOC(=O)[C@H]1O[C@@H]1C(=O)N[C@@H](CC(C)C)C(=O)NCCC(C)C (relative stereo) [E64-d, {2S, 3S}-trans-epoxysuccinyl-L-leucylamido-3-methylbutane ethyl ester], the “viral CPE and viral antigen expression” value (icSARS-CoV) is reported as “almost complete elimination”, the “reduction in virus yield” value (icSARS-CoV; 24 and 48 hrs postinfection) is reported as 3-4 log and the “viral CPE and viral antigen expression” value (wild type SARS-CoV) is reported as “almost complete elimination”. The “reduction in virus yield” value (wild type SARS-CoV; 24 and 48 hrs postinfection) was 3-4 log.
